Source: publication PMC8757871, “Bridging the Antimicrobial Activity of Two Lactoferricin Derivatives in E. coli and Lipid-Only Membranes” (Frontiers in Medical Technology, 2021)

Experiments:
E. coli K12 5K = experiment: ζ-potential estimate of the maximum number of surface-adsorbed AMPs; type: cell-based, Escherichia coli; conditions: for fraction of cell associated peptides that do not enter inner compartments: at bacteria inhibition levels of 10%; for NPmax/NB, ratio of surface-adsorbed to cell-partitioned AMPs (upper boundary): at the MIC
Description: DLS and ζ-potential measurements were carried out with a Zetasizer Nano ZSP (Malvern Panalytical, Malvern, UK). E. coli suspensions were incubated with a given AMP concentration at 37°C for 1 h prior to each measurement. […] Control samples (no AMPs) were suspended and incubated in buffer alone. […] Because of the high conductivity of PBS, the electrode voltage was set to 4 V for ζ-potential measurements to keep currents below 1 mA. Further, measurements were paused for 180 s between individual runs. This prevented Joule heating leading to sample denaturation and electrode blackening. Experiments were repeated three times on different preparations, each consisting of at least six measurements. Reported ζ-potential values are given by the median of the corresponding measurements (i.e., from at least 18 values) and errors were derived using the median absolute deviations.
Remembering that ζ-potential values are sensitive only to the charges exposed to the outside of any particle, including bacteria, we can obtain upper boundaries for the number of surface adsorbed peptides. Given the high abundance of lipopolysaccharides (LPS) in the outer leaflet (about 70–90 vol%) of Gram-negative bacteria, as compared to other charged lipid species such as PG and CL (<2 vol%) and membrane proteins (7–20 vol%) ([40]), it is justified to assume that LPS dominates the surface potential of E. coli. Then, following considerations put forth for peptides partitioning in liposomes ([31], [41]), the ratio of ζ-potential values in the presence and absence of AMPs is […]
(9) ζ/ζ0≈σ/σ0≃(S0/S)∑iNizi+NPzP/NLPS0zLPS, where (σ, σ0) and (S, S0) are the corresponding surface charge densities and cell surface areas, respectively. Further, NLPS0 is the initial number of LPS molecules in the outer leaflet, with a nominal charge zLPS ≃ −6 ([42]); NP is the number of surface adsorbed AMPs of nominal charge zP ≃ +5 ([20]); and ∑iNizi=NLPSzLPS+NPGzPG+NCLzCL considers anionic lipids that translocate into the outer leaflet due to AMP activity ([3], [6], [18]). This term also accounts for a possible loss of LPS molecules in the outer leaflet due to vesiculation processes ([25]). Note that Equation (9) is only valid for |ζ| ≤ 25 mV, in which range ζ ∝ σ ([43]). […] Rearranging Equation (9) leads to […]
(13) NPmax/NLPS0≈(zLPS/zP)(ζ/ζ0-1), where NPmax is the upper boundary of surface adsorbed peptides. […] For example, using DLS, we measured a hydrodynamic diameter of E. coli K12 2RH = 980 ± 30 nm, from which we calculate S0≃4.5×10^6 nm^2, approximating the bacteria's shape with a cylinder of radius r and length l using RH2≃r^2/2+l^2/12 and r ~ 400 nm ([47]). […]

[1] = solubility of the peptide in buffer (stock preparation); type: physicochemical; conditions: PBS / HBS stock solutions; acetic acid up to 0.3% and DMSO up to 3% vol/vol added
Description: Peptide stock solutions of LF11-215 and LF11-324 were prepared in PBS solution for bacteria and HBS solution for lipid vesicles. […] AMP concentrations of the stock solutions were determined by comparing against the absorption band of the aromatic amino acids with the spectrophotometer NanoDrop ND-1000 (Thermo Fisher Scientific, Waltham, MA). Peptide stock solutions were stored in silanized glass tubes until use.

Substance	fraction of cell associated peptides that do not enter inner compartments (E. coli K12 5K)	NPmax/NB, ratio of surface-adsorbed to cell-partitioned AMPs (upper boundary) (E. coli K12 5K)	solubility in buffer [1]
H-FWRIRIRR-NH2 [LF11-215, H-FWRIRIRR-NH2]	~ 5%	about 1%	
H-PFFWRIRIRR-NH2 [LF11-324, H-PFFWRIRIRR-NH2]	~ 18%	~5%	weak solubility
